Reference: ChEMBL document CHEMBL3885861, “Open TG-GATES”

Organism: Rattus norvegicus
Test: Open TG-GATES - Regimen: Daily Repeat
Type: toxicity, organism-based, Sprague-Dawley
Set-up: regimen Daily Repeat, gender Male, age 6 weeks
Conditions: in vivo, po, 5 mg/kg, route gavage, dose level Low; for APTT / Bas / Eos / Fbg / Hb / Ht / Lym / MCH / MCHC / MCV / Mono / Neu / PT / Plat / RBC / Ret / WBC: tissue Blood; for KIDNEY_L / KIDNEY_R / KIDNEY_TOTAL: tissue Kidney; for LIVER: tissue Liver; for A/G / ALP / ALT / AST / BUN / CRE / Ca / Cl / DBIL / GLC / IP / K / LDH / Na / PL / RALB / TBIL / TC / TG / TP / gamma-GTP: tissue Plasma

`CC(=N)S` [THIOACETAMIDE] showed a TERMINAL_BW (72 h, time 3 day) of 228.6 g, an APTT (72 h, time 3 day) of 16.9 s and a Bas (72 h, time 3 day) of 0%. For the same compound, the Eos (72 h, time 3 day) was 1%, the Fbg (72 h, time 3 day) was 234 mg/dL and the Hb (72 h, time 3 day) was 13.6 g/dL. For the same compound, the Ht (72 h, time 3 day) was 41.4%, the Lym (72 h, time 3 day) was 78.8% and the MCH (72 h, time 3 day) was 21 pg. For the same compound, the MCHC (72 h, time 3 day) was 32.9%, the MCV (72 h, time 3 day) was 63.8 fL and the Mono (72 h, time 3 day) was 8.2%. The Neu (72 h, time 3 day) was 12.2%, the PT (72 h, time 3 day) was 11.6 s and the Plat (72 h, time 3 day) was 111 x10_4/uL. It also gave an RBC (72 h, time 3 day) of 649.4 x10_4/ul, a Ret (72 h, time 3 day) of 6.6% and a WBC (72 h, time 3 day) of 139.8 x10_2/uL. The KIDNEY_L (72 h, time 3 day) was 1 g, the KIDNEY_R (72 h, time 3 day) was 1.1 g and the KIDNEY_TOTAL (72 h, time 3 day) was 2.1 g. It also gave an LIVER (72 h, time 3 day) of 11.7 g, an A/G (72 h, time 3 day) of 2.1 and an ALP (72 h, time 3 day) of 900 IU/L. The ALT (72 h, time 3 day) was 28 IU/L, the AST (72 h, time 3 day) was 58.8 IU/L and the BUN (72 h, time 3 day) was 16.2 mg/dL. For the same compound, the CRE (72 h, time 3 day) was 0.5 mg/dL, the Ca (72 h, time 3 day) was 10.7 mg/dL and the Cl (72 h, time 3 day) was 104.8 meq/L. For the same compound, the DBIL (72 h, time 3 day) was 0.004 mg/dL, the GLC (72 h, time 3 day) was 192.6 mg/dL and the IP (72 h, time 3 day) was 7.8 mg/dL. It also gave a K (72 h, time 3 day) of 4.7 meq/L, an LDH (72 h, time 3 day) of 95.2 IU/L and a Na (72 h, time 3 day) of 137 meq/L. For the same compound, the PL (72 h, time 3 day) was 159.8 mg/dL, the RALB (72 h, time 3 day) was 4 g/dL and the TBIL (72 h, time 3 day) was 0.3 mg/dL. For the same compound, the TC (72 h, time 3 day) was 83.2 mg/dL, the TG (72 h, time 3 day) was 123.2 mg/dL and the TP (72 h, time 3 day) was 5.9 g/dL. It also gave a gamma-GTP (72 h, time 3 day) of 2 IU/L, a TERMINAL_BW ([…], time 7 day) of 252.6 g and a TERMINAL_BW ([…], time 14 day) of 308.5 g. It also gave a TERMINAL_BW ([…], time 28 day) of 375.1 g, an APTT ([…], time 7 day) of 16.4 s and a Bas ([…], time 7 day) of 0%. For the same compound, the Eos ([…], time 7 day) was 1%, the Fbg ([…], time 7 day) was 229.2 mg/dL and the Hb ([…], time 7 day) was 13.8 g/dL. For the same compound, the Ht ([…], time 7 day) was 41.5%, the Lym ([…], time 7 day) was 82% and the MCH ([…], time 7 day) was 20.9 pg. The MCHC ([…], time 7 day) was 33.3%, the MCV ([…], time 7 day) was 62.9 fL and the Mono ([…], time 7 day) was 6.6%. The Neu ([…], time 7 day) was 10.2%, the PT ([…], time 7 day) was 12.1 s and the Plat ([…], time 7 day) was 111.2 x10_4/uL. It also gave an RBC ([…], time 7 day) of 660.4 x10_4/ul, a Ret ([…], time 7 day) of 5.3% and a WBC ([…], time 7 day) of 155.6 x10_2/uL. It also gave an APTT ([…], time 14 day) of 17.1 s, a Bas ([…], time 14 day) of 0% and an Eos ([…], time 14 day) of 0.8%. It also gave a Fbg ([…], time 14 day) of 231.8 mg/dL, a Hb ([…], time 14 day) of 14.6 g/dL and a Ht ([…], time 14 day) of 44.1%. It also gave a Lym ([…], time 14 day) of 83.6%, an MCH ([…], time 14 day) of 19.8 pg and an MCHC ([…], time 14 day) of 33.1%. The MCV ([…], time 14 day) was 59.9 fL, the Mono ([…], time 14 day) was 6% and the Neu ([…], time 14 day) was 10%. It also gave a PT ([…], time 14 day) of 12.3 s, a Plat ([…], time 14 day) of 102 x10_4/uL and an RBC ([…], time 14 day) of 736.2 x10_4/ul. It also gave a Ret ([…], time 14 day) of 3.9%, a WBC ([…], time 14 day) of 165.2 x10_2/uL and an APTT ([…], time 28 day) of 17 s. For the same compound, the Bas ([…], time 28 day) was 0%, the Eos ([…], time 28 day) was 0.8% and the Fbg ([…], time 28 day) was 242.4 mg/dL. It also gave a Hb ([…], time 28 day) of 15 g/dL, a Ht ([…], time 28 day) of 44.9% and a Lym ([…], time 28 day) of 85.2%. The MCH ([…], time 28 day) was 19.6 pg, the MCHC ([…], time 28 day) was 33.5% and the MCV ([…], time 28 day) was 58.5 fL. It also gave a Mono ([…], time 28 day) of 3.6%, a Neu ([…], time 28 day) of 10.4% and a PT ([…], time 28 day) of 11.1 s. It also gave a Plat ([…], time 28 day) of 111.7 x10_4/uL, an RBC ([…], time 28 day) of 767.8 x10_4/ul and a Ret ([…], time 28 day) of 3%. It also gave a WBC ([…], time 28 day) of 184.6 x10_2/uL, a KIDNEY_L ([…], time 7 day) of 1 g and a KIDNEY_R ([…], time 7 day) of 1.1 g. The KIDNEY_TOTAL ([…], time 7 day) was 2.1 g, the KIDNEY_L ([…], time 14 day) was 1.2 g and the KIDNEY_R ([…], time 14 day) was 1.2 g. The KIDNEY_TOTAL ([…], time 14 day) was 2.4 g, the KIDNEY_L ([…], time 28 day) was 1.3 g and the KIDNEY_R ([…], time 28 day) was 1.4 g. It also gave a KIDNEY_TOTAL ([…], time 28 day) of 2.7 g, an LIVER ([…], time 7 day) of 12.3 g and an LIVER ([…], time 14 day) of 13.6 g. For the same compound, the LIVER ([…], time 28 day) was 16.5 g, the A/G ([…], time 7 day) was 1.9 and the ALP ([…], time 7 day) was 742.6 IU/L. For the same compound, the ALT ([…], time 7 day) was 31.8 IU/L, the AST ([…], time 7 day) was 56 IU/L and the BUN ([…], time 7 day) was 18 mg/dL. The CRE ([…], time 7 day) was 0.5 mg/dL, the Ca ([…], time 7 day) was 10.5 mg/dL and the Cl ([…], time 7 day) was 105 meq/L. It also gave a DBIL ([…], time 7 day) of 0.008 mg/dL, a GLC ([…], time 7 day) of 186.6 mg/dL and an IP ([…], time 7 day) of 7.6 mg/dL. It also gave a K ([…], time 7 day) of 5.1 meq/L, an LDH ([…], time 7 day) of 84.8 IU/L and a Na ([…], time 7 day) of 135.2 meq/L. It also gave a PL ([…], time 7 day) of 160 mg/dL, an RALB ([…], time 7 day) of 3.9 g/dL and a TBIL ([…], time 7 day) of 0.3 mg/dL. It also gave a TC ([…], time 7 day) of 76.4 mg/dL, a TG ([…], time 7 day) of 167.4 mg/dL and a TP ([…], time 7 day) of 6 g/dL. It also gave a gamma-GTP ([…], time 7 day) of 1.4 IU/L, an A/G ([…], time 14 day) of 2 and an ALP ([…], time 14 day) of 870.6 IU/L. For the same compound, the ALT ([…], time 14 day) was 29.8 IU/L, the AST ([…], time 14 day) was 62 IU/L and the BUN ([…], time 14 day) was 18.2 mg/dL. The CRE ([…], time 14 day) was 0.6 mg/dL, the Ca ([…], time 14 day) was 10.2 mg/dL and the Cl ([…], time 14 day) was 104.6 meq/L. For the same compound, the DBIL ([…], time 14 day) was 0.006 mg/dL, the GLC ([…], time 14 day) was 185.4 mg/dL and the IP ([…], time 14 day) was 6.8 mg/dL. The K ([…], time 14 day) was 5 meq/L, the LDH ([…], time 14 day) was 78.6 IU/L and the Na ([…], time 14 day) was 134.2 meq/L. For the same compound, the PL ([…], time 14 day) was 135.8 mg/dL, the RALB ([…], time 14 day) was 4.1 g/dL and the TBIL ([…], time 14 day) was 0.4 mg/dL. It also gave a TC ([…], time 14 day) of 61.6 mg/dL, a TG ([…], time 14 day) of 156.8 mg/dL and a TP ([…], time 14 day) of 6.2 g/dL. For the same compound, the gamma-GTP ([…], time 14 day) was 2 IU/L, the A/G ([…], time 28 day) was 1.6 and the ALP ([…], time 28 day) was 613.4 IU/L. The ALT ([…], time 28 day) was 25.8 IU/L, the AST ([…], time 28 day) was 54.6 IU/L and the BUN ([…], time 28 day) was 21.6 mg/dL. For the same compound, the CRE ([…], time 28 day) was 0.6 mg/dL, the Ca ([…], time 28 day) was 10.2 mg/dL and the Cl ([…], time 28 day) was 103 meq/L. The DBIL ([…], time 28 day) was 0 mg/dL, the GLC ([…], time 28 day) was 164 mg/dL and the IP ([…], time 28 day) was 6.9 mg/dL. For the same compound, the K ([…], time 28 day) was 4.6 meq/L, the LDH ([…], time 28 day) was 90.2 IU/L and the Na ([…], time 28 day) was 135.2 meq/L. For the same compound, the PL ([…], time 28 day) was 135.6 mg/dL, the RALB ([…], time 28 day) was 3.9 g/dL and the TBIL ([…], time 28 day) was 0.3 mg/dL. For the same compound, the TC ([…], time 28 day) was 60.8 mg/dL, the TG ([…], time 28 day) was 131.8 mg/dL and the TP ([…], time 28 day) was 6.4 g/dL. For the same compound, the gamma-GTP ([…], time 28 day) was 1.6 IU/L.
